For one assay, the system named is Norovirus. Kind of assay: Antiviral activity against Norovirus in cell-based replicon system. (In general: Replicon systems follow genome replication, usually without infectious particles.)
The subject of assay [1] is Norovirus 3CL protease (Norovirus). In words: Inhibition of Norovirus 3CL protease by FRET assay.
The target of assay [2] is T1, Carboxypeptidase A1 (Homo sapiens) (UniProt P15085).
T1 sequence (whole entry): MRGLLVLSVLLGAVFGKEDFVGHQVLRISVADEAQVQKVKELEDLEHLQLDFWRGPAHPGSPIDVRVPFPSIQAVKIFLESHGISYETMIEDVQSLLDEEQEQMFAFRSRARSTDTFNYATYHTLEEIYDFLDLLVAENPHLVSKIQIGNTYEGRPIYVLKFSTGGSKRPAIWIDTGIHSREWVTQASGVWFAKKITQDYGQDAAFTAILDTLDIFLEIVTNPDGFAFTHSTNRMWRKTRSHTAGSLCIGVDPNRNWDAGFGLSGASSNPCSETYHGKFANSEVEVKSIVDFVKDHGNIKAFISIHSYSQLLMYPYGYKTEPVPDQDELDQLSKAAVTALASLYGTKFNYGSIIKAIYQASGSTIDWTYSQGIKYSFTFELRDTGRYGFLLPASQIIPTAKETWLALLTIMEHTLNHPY
In words: Inhibition of carboxypeptidase A (unknown origin) at 43 uM after 30 mins.

The target of a further assay is Trypsin (Homo sapiens) (UniProt P07477+P07478+P35030). Kind of assay: Inhibition of trypsin (unknown origin) at 125 uM after 30 mins. It is filed as protein assay.
Assay [3] is filed under the species Homo sapiens. In words: Inhibition of human neutrophil elastase at 17.5 uM after 30 mins.
In assay [4] the target is Prothrombin (Homo sapiens) (UniProt P00734). In words: Inhibition of thrombin (unknown origin) at 2.75 uM after 30 mins.
The species entered for assay [5] is Homo sapiens. In words: Inhibition of alpha-chymotrypsin (unknown origin) at 2.5 uM after 30 mins.

By EC50 is commonly meant the concentration that produces a half-maximal response. Read a high EC50 as lower potency in that assay. Broadly, the IC50 is the concentration needed to halve the response being measured. Higher therefore signals weaker potency. The inhibition is the relative decrease from the control value, in per cent.

As to `CCCCOP(=O)(OCCCC)C(O)[C@H](CC1CCNC1=O)NC(=O)[C@H](CC1CCCCC1)NC(=O)OCc1ccccc1` (mixture of isomers), in the assay on Norovirus, a half-maximal effect (EC50) was put at 0.5 µM.
`CCOP(=O)(OCC)C(O)[C@H](CC1CCNC1=O)NC(=O)[C@H](CC1CCCCC1)NC(=O)OCc1ccccc1` (mixture of isomers) came in with an EC50 in the assay with Norovirus of 0.25 µM. Besides, the IC50 in assay [1] came to 3.5 µM. The inhibition in assay [2] was determined as 0%; on Trypsin (Homo sapiens), 0%; in the assay listed under Homo sapiens [3], 15%; in assay [4], 0%; in the assay filed under Homo sapiens [5] it was 0%.
The compound `O=C(N[C@@H](CC1CCCCC1)C(=O)N[C@@H](CC1CCNC1=O)C(O)P(=O)(OCc1ccccc1)OCc1ccccc1)OCc1ccccc1` (mixture of isomers) returned an EC50 in the assay with Norovirus of 0.6 µM.
On the same count and under the same terms, in the case of `CC(C)C[C@H](NC(=O)OCc1ccccc1)C(=O)N[C@@H](CC1CCNC1=O)C(O)P(=O)(O)O` (mixture of isomers) it was 7.5 µM.
In the case of `COP(=O)(OC)C(O)[C@H](CC1CCNC1=O)NC(=O)[C@H](CC(C)C)NC(=O)OCc1ccccc1` (mixture of isomers), a half-maximal effect with Norovirus (EC50) was put at 3.5 µM. For the same compound, the IC50 in assay [1] worked out at 20.2 µM.
In the same order, the values of `CCOP(=O)(OCC)C(O)[C@H](CC1CCNC1=O)NC(=O)[C@H](CC(C)C)NC(=O)OCc1ccccc1` (mixture of isomers) are 0.8 µM and 11.5 µM.
In the assay with Norovirus, `COP(=O)(OC)C(O)[C@H](CC1CCNC1=O)NC(=O)[C@H](CC1CCCCC1)NC(=O)OCc1ccccc1` (mixture of isomers) came in with a concentration for a half-maximal effect (EC50) of 2.8 µM. The IC50 in assay [1] amounted to 8.3 µM.
In the same order, the values of `O=C(N[C@@H](CC1CCCCC1)C(=O)N[C@@H](CC1CCNC1=O)C(O)P(=O)(OCC(F)(F)F)OCC(F)(F)F)OCc1ccccc1` (mixture of isomers) are 0.35 µM and 6.5 µM.
